Experimental findings from publication PMC12040169 (PLOS Biology, 2025) are described below.

Molecules are shown by their SMILES.

This data set is described as follows: in vitro. Particulars: human, hela cells, % viability.
For orientation: viability means a read-out of living cells in per cent, often relative to untreated cells. On to `CC(C)C(=O)Nc1cc2cccnc2c(-c2ccccc2)n1` [CBK081287], for which the viability at 28.5 h, 10 µM came out at 92.2%. Next, `CC(C)CCc1ccc(C#N)c(=O)[nH]1` [CBK016227]: 98.8%; `Cc1csc(NC(=O)c2c(C)c(C)n[nH]c2=O)n1` [CBK297759]: 84.4%; `Nc1ncc(-c2ccccc2O)nc1-c1ccc(O)cc1` [CBK115548]: 78.5%.

As to `Cc1cc(-c2cn(C)nc2C2CCCN2C(=O)CC(C)(C)C)on1` (stereo not drawn) [CBK283453], the viability at 28.5 h, 10 µM is 87.3%. Consider `CC(C)(C)OC(=O)N1CCC2(CC1)NC(=O)c1cc(-c3cccnc3)ccc1O2` [CBK083517], for which the viability at 28.5 h, 10 µM stood at 94.1%.

As to `COCc1cn(C[C@H]2CC3CCN2C[C@@H]3C(=O)NC2CC2)nn1` (stereo partly drawn) [CBK288835], the viability at 28.5 h, 10 µM is 98.6%.

Turning to `Cc1cc(S(=O)(=O)Nc2ccccc2-c2nncn2C)c(C)o1` [CBK306414], the viability at 28.5 h, 10 µM amounted to 85.9%. As to `COc1ccc(C2=NN(c3ccc([N+](=O)[O-])cc3)C(=O)/C2=C/NCc2ccc3c(c2)OCO3)cc1` [CBK264598], the viability at 28.5 h, 10 µM came to 84.1%.

Take `Cc1ccc2nc(O)c(C3=NN(C(=O)CCC(=O)O)C(c4ccco4)C3)c(-c3ccccc3)c2c1` (stereo not drawn) [CBK267544]: the viability at 28.5 h, 10 µM is 91%. Regarding `O=C(COc1cccnc1)N1CCN(C(=O)c2ccco2)CC1` [CBK144482], the viability at 28.5 h, 10 µM was 96.7%. Next, `O=C(NC1CCCCC1)c1ccc(-n2ccnc2)c(-n2cccc2)c1` [CBK285365]: 107%; `O=C(O)CCCC(=O)NNC(=O)c1cccc(Br)c1` [CBK263530]: 99.9%. For the molecule `Fc1ccc(CNc2c(-c3cccs3)nc3cnccn23)cc1` [CBK283487], the viability at 28.5 h, 10 µM was found to be 112%. Next, `c1cncc(COc2nccnc2N2CCN(CCN3CCOCC3)CC2)c1` [CBK083141]: 104%. On to `O=C(c1ccc2c(c1)OCCO2)N1CCC2(CCN(C(=O)c3cc(F)c(F)cc3F)C2)C1` (stereo not drawn) [CBK131410], for which the viability at 28.5 h, 10 µM was 98.2%. Consider `Cc1cc2c(cc3c(=O)n(CC(=O)NC4CC4)nc(C)n32)s1` [CBK284067], for which the viability at 28.5 h, 10 µM is 74.3%. Next, `O=[N+]([O-])c1ccccc1S(=O)(=O)N1CCN(S(=O)(=O)c2ccc(F)cc2)CC1` [CBK264236]: 92.7%; `C=CCc1cc(C)cc(C)c1OCCN1CCN(CC)CC1` [CBK267392G]: 93.7%. As for `O=C(NCCSCc1ccco1)Nc1ccc(Cl)cc1` [CBK267869], the viability at 28.5 h, 10 µM is 97.3%.

Turning to `O=C1COc2ccccc2C/C=C/C[C@H]2CN(C(=O)Cn3ncc4ccccc4c3=O)CC[C@H]2N1` [CBK292084], the viability at 28.5 h, 10 µM worked out at 85.6%. Next, `c1cnc(Oc2ccc(CN3CCCC(c4cn[nH]c4)C3)cc2)cn1` (stereo not drawn) [CBK306416]: 86.6%; `Cc1cc(OCC(=O)Nc2ccccc2CO)cc(C)c1Br` [CBK265094]: 88.2%. As to `COc1ccc(-c2nnc3ccc(SC(C)C)nn23)cc1OC` [CBK287526], the viability at 28.5 h, 10 µM is 101%. On to `CCOC(=O)N1CCC(NC(=O)N2CCN(c3cc(C(F)(F)F)ccn3)CC2)CC1` [CBK162353], for which the viability at 28.5 h, 10 µM stood at 103%. As to `CCCn1nc(C)cc1NC(=O)c1ncoc1-c1ccc(F)cc1` [CBK282361], the viability at 28.5 h, 10 µM was found to be 88.7%. Take `CC[C@H]1C[N@@]2CC[C@H]1C[C@@H]2CNS(=O)(=O)c1ccc(NC(C)=O)cc1` [CBK288745]: the viability at 28.5 h, 10 µM is 82.9%. On to `COc1ccc(OC)c(NS(=O)(=O)c2ccccc2)c1` [CBK099989], for which the viability at 28.5 h, 10 µM stood at 73%. As for `N#Cc1cc(F)cc(F)c1NC(=O)c1cccs1` [CBK066832], the viability at 28.5 h, 10 µM amounted to 90.2%. Next, `FC(F)(F)c1ccc(Sc2cccs2)nc1` [CBK115236]: 92.5%. As for `COCCCn1c(CCC(=O)O)ccc1-c1cccs1` [CBK267942], the viability at 28.5 h, 10 µM stood at 121%.

For the molecule `COc1ccc(C(C)C)cc1-c1nc2ncccc2cc1NC(=O)C(C)C` [CBK073659], the viability at 28.5 h, 10 µM was determined as 87.8%. Regarding `O=C(O)c1ccc(NC(S)=NC(NC(=O)c2ccco2)C(Cl)(Cl)Cl)cc1` (stereo not drawn) [CBK261025], the viability at 28.5 h, 10 µM was 96.2%. `Cc1occc1C(=O)NC(C)c1ccc2c(c1)OCO2` (stereo not drawn) [CBK268153]: the viability at 28.5 h, 10 µM was found to be 105%. Next, `Cc1[nH]c(=O)[nH]c(=S)c1C(=O)NCc1cccc(Cl)c1C` [CBK115493]: 94.6%; `Cc1cccc(C(=O)N2CCC(N(C)Cc3ccc(-c4ccc(S(C)(=O)=O)cc4)nc3)CC2)n1` [CBK165937T]: 81.5%.

Turning to `CCOC(=O)c1ccccc1NS(=O)(=O)c1ccc(C(F)(F)F)cc1[N+](=O)[O-]` [CBK050584], the viability at 28.5 h, 10 µM is 96.2%.

In the case of `Cc1cccc(C(=O)N2CCCC(C)C2)c1` (stereo not drawn) [CBK074057], the viability at 28.5 h, 10 µM is 95.4%. Next, `O=C(Cn1c(C2CCCNC2)cc2cccnc21)N1CCCC1` (stereo not drawn) [CBK285060]: 94.4%; `CS(=O)(=O)c1ccccc1C(=O)n1ccn(-c2cccc(C(F)(F)F)c2)c1=O` [CBK106584]: 91.1%; `CC1(C(=O)O)NC(c2ccccc2O)C2C(=O)N(Cc3ccccc3)C(=O)C21` (stereo not drawn) [CBK218007]: 90.6%. Regarding `Cc1ccc(OCC(=O)NNC(=O)C2COc3ccccc3O2)cc1` (stereo not drawn) [CBK263511], the viability at 28.5 h, 10 µM stood at 95.4%. As to `Cc1ccc(CC(=O)N2CCC(c3ncc(C(=O)Nc4ccc(F)cc4)c(C)n3)CC2)cc1` [CBK285884], the viability at 28.5 h, 10 µM is 111%. For `COc1cc(/C=C2/SC(=S)N(CCC(=O)N3CCN(C)CC3)C2=O)cc(OC)c1OC` [CBK263656], the viability at 28.5 h, 10 µM is 88.1%. In the case of `c1ccc2oc(CN3CCC(N4CCCCC4)CC3)cc2c1` [CBK282052], the viability at 28.5 h, 10 µM came to 87.1%. In the case of `CCCC1C2C=CC(C2)C1/C=N/O` (stereo not drawn) [CBK009671], the viability at 28.5 h, 10 µM was 83.4%.

Regarding `O=S(=O)(NC1CCN(Cc2ccccc2)CC1)c1ccc(-c2ccon2)s1` [CBK062038], the viability at 28.5 h, 10 µM turned out to be 93.5%. For `COc1cncc(-c2cc(Nc3ccc(O)cc3C)ncn2)c1` [CBK091061], the viability at 28.5 h, 10 µM came out at 103%. Next, `CCOC(=O)CN1CCC(Oc2cncc(OCCN3CCOCC3)n2)C1` (stereo not drawn) [CBK084491]: 89.3%; `Fc1ccc(-c2cncc(NCCCN3CCOCC3)n2)c(F)c1` [CBK065867]: 91.3%. Consider `COc1cccc(CN(C)C2CCN(C)CC2)c1OC` [CBK261532], for which the viability at 28.5 h, 10 µM worked out at 97.7%. Regarding `Cc1ccc(C(C)C)c(OC(=O)c2ccc3nccnc3c2)c1` [CBK269114], the viability at 28.5 h, 10 µM worked out at 62.7%.

With `Cc1ccccc1C1(O)CCN(CC(O)c2ccc(F)cc2)CC1` (stereo not drawn) [CBK282471], the viability at 28.5 h, 10 µM was found to be 87.7%. Consider `Nc1cc(O)nc(SCC(=O)N2CCN(c3ccccc3)CC2)n1` [CBK267925], for which the viability at 28.5 h, 10 µM was determined as 86%. In the case of `CC(C)NC(=O)[C@@H]1CN(C)C[C@]12CCc1ccccc1C2=O` [CBK284764], the viability at 28.5 h, 10 µM was 93.8%. As for `CCN(CC)S(=O)(=O)c1cc(C(=O)Nc2ccccc2C(=O)O)c(Cl)cc1Cl` [CBK265731], the viability at 28.5 h, 10 µM was determined as 125%. Consider `O=C1NCC2(C/C=C/CCOc3ccccc31)CCN(C(=O)CCN1CCCC1=O)CC2` [CBK292016], for which the viability at 28.5 h, 10 µM turned out to be 99.3%.
